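Results reflect a 48-hour exposure of cells in 96-well plates to compound at five concentrations. TGI: concentration producing complete growth inhibition.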
Assays:
Assay in all cases: NCI tumour cell line growth inhibition, 48 h
SNB-75 CNS = system: SNB-75 CNS
HS 578T breast = system: HS 578T breast
786-0 renal = system: 786-0 renal
SK-OV-3 ovarian = system: SK-OV-3 ovarian
OVCAR-8 ovarian = system: OVCAR-8 ovarian
A498 renal = system: A498 renal
KM12 colon = system: KM12 colon
M14 melanoma = system: M14 melanoma
HCC-2998 colon = system: HCC-2998 colon
RPMI-8226 leukemia = system: RPMI-8226 leukemia
HL-60(TB) leukemia = system: HL-60(TB) leukemia
NCI-H23 lung = system: NCI-H23 lung
PC-3 prostate = system: PC-3 prostate
CAKI-1 renal = system: CAKI-1 renal
SF-295 CNS = system: SF-295 CNS
COLO 205 colon = system: COLO 205 colon
MALME-3M melanoma = system: MALME-3M melanoma
SW-620 colon = system: SW-620 colon
HT29 colon = system: HT29 colon
NCI-H226 lung = system: NCI-H226 lung
IGROV1 ovarian = system: IGROV1 ovarian
SF-539 CNS = system: SF-539 CNS
SK-MEL-28 melanoma = system: SK-MEL-28 melanoma
OVCAR-3 ovarian = system: OVCAR-3 ovarian
NCI-H522 lung = system: NCI-H522 lung
EKVX NSCLC = system: EKVX NSCLC
ACHN renal = system: ACHN renal
MDA-N = system: MDA-N
HOP-62 NSCLC = system: HOP-62 NSCLC
SK-MEL-5 melanoma = system: SK-MEL-5 melanoma
CCRF-CEM leukemia = system: CCRF-CEM leukemia
SN12C renal = system: SN12C renal
OVCAR-4 ovarian = system: OVCAR-4 ovarian
MCF7 breast = system: MCF7 breast
UO-31 renal = system: UO-31 renal
OVCAR-5 ovarian = system: OVCAR-5 ovarian
SF-268 CNS = system: SF-268 CNS
MDA-MB-435 = system: MDA-MB-435
HCT-15 colon = system: HCT-15 colon
U251 CNS = system: U251 CNS
MDA-MB-231 breast = system: MDA-MB-231 breast
BT-549 breast = system: BT-549 breast
RXF 393 renal = system: RXF 393 renal
SR leukemia = system: SR leukemia
NCI/ADR-RES ovarian = system: NCI/ADR-RES ovarian
UACC-257 melanoma = system: UACC-257 melanoma
A549 NSCLC = system: A549 NSCLC
LOX IMVI melanoma = system: LOX IMVI melanoma
HOP-92 NSCLC = system: HOP-92 NSCLC
HCT-116 colon = system: HCT-116 colon
NCI-H460 lung = system: NCI-H460 lung
SK-MEL-2 melanoma = system: SK-MEL-2 melanoma
K-562 leukemia = system: K-562 leukemia
DU-145 prostate = system: DU-145 prostate
UACC-62 melanoma = system: UACC-62 melanoma
SNB-19 CNS = system: SNB-19 CNS
T-47D breast = system: T-47D breast
TK-10 renal = system: TK-10 renal
MOLT-4 leukemia = system: MOLT-4 leukemia
DLD-1 colon = system: DLD-1 colon
KM20L2 colon = system: KM20L2 colon
SNB-78 CNS = system: SNB-78 CNS
DMS 114 small cell lung = system: DMS 114 small cell lung
M19-MEL melanoma = system: M19-MEL melanoma
LXFL 529 NSCLC = system: LXFL 529 NSCLC
HOP-18 NSCLC = system: HOP-18 NSCLC

OC(COc1ccc(Cl)cc1Cl)CN1CCCC1 (centres undefined) was tested, and the TGI (SNB-75 CNS) was over 100 µM, the TGI (HS 578T breast) was over 100 µM and the TGI (786-0 renal) was over 100 µM. For the same compound, the TGI (SK-OV-3 ovarian) was over 100 µM, the TGI (OVCAR-8 ovarian) was over 100 µM and the TGI (A498 renal) was over 100 µM. It also gave a TGI (KM12 colon) of over 100 µM, a TGI (M14 melanoma) of 41.1 µM and a TGI (HCC-2998 colon) of over 100 µM. It also gave a TGI (RPMI-8226 leukemia) of over 100 µM, a TGI (HL-60(TB) leukemia) of over 100 µM and a TGI (NCI-H23 lung) of over 100 µM. For the same compound, the TGI (PC-3 prostate) was over 100 µM, the TGI (CAKI-1 renal) was over 100 µM and the TGI (SF-295 CNS) was over 100 µM. It also gave a TGI (COLO 205 colon) of over 100 µM, a TGI (MALME-3M melanoma) of over 100 µM and a TGI (SW-620 colon) of over 100 µM. The TGI (HT29 colon) was 69.9 µM, the TGI (NCI-H226 lung) was over 100 µM and the TGI (IGROV1 ovarian) was over 100 µM. It also gave a TGI (SF-539 CNS) of over 100 µM, a TGI (SK-MEL-28 melanoma) of over 100 µM and a TGI (OVCAR-3 ovarian) of over 100 µM. It also gave a TGI (NCI-H522 lung) of over 100 µM, a TGI (EKVX NSCLC) of over 100 µM and a TGI (ACHN renal) of over 100 µM. It also gave a TGI (MDA-N) of over 100 µM, a TGI (HOP-62 NSCLC) of over 100 µM and a TGI (SK-MEL-5 melanoma) of over 100 µM. It also gave a TGI (CCRF-CEM leukemia) of over 100 µM, a TGI (SN12C renal) of over 100 µM and a TGI (OVCAR-4 ovarian) of over 100 µM. It also gave a TGI (MCF7 breast) of over 100 µM, a TGI (UO-31 renal) of over 100 µM and a TGI (OVCAR-5 ovarian) of over 100 µM. It also gave a TGI (SF-268 CNS) of over 100 µM, a TGI (MDA-MB-435) of over 100 µM and a TGI (HCT-15 colon) of over 100 µM. The TGI (U251 CNS) was over 100 µM, the TGI (MDA-MB-231 breast) was over 100 µM and the TGI (BT-549 breast) was over 100 µM. It also gave a TGI (RXF 393 renal) of over 100 µM, a TGI (SR leukemia) of over 100 µM and a TGI (NCI/ADR-RES ovarian) of over 100 µM. It also gave a TGI (UACC-257 melanoma) of 60.2 µM, a TGI (A549 NSCLC) of over 100 µM and a TGI (LOX IMVI melanoma) of over 100 µM. The TGI (HOP-92 NSCLC) was over 100 µM, the TGI (HCT-116 colon) was over 100 µM and the TGI (NCI-H460 lung) was over 100 µM. It also gave a TGI (SK-MEL-2 melanoma) of over 100 µM, a TGI (K-562 leukemia) of over 100 µM and a TGI (DU-145 prostate) of over 100 µM. It also gave a TGI (UACC-62 melanoma) of 50.1 µM, a TGI (SNB-19 CNS) of over 100 µM and a TGI (T-47D breast) of over 100 µM. The TGI (TK-10 renal) was over 100 µM and the TGI (MOLT-4 leukemia) was over 100 µM.

Work on Cc1ccc(NC(=O)c2cccc([N+](=O)[O-])c2O)c(C)c1 yielded a TGI (SNB-75 CNS) of over 100 µM, a TGI (DLD-1 colon) of over 100 µM and a TGI (SK-OV-3 ovarian) of over 100 µM. The TGI (OVCAR-8 ovarian) was over 100 µM, the TGI (A498 renal) was 63.5 µM and the TGI (KM12 colon) was over 100 µM. The TGI (M14 melanoma) was over 100 µM, the TGI (HCC-2998 colon) was over 100 µM and the TGI (RPMI-8226 leukemia) was 92.7 µM. For the same compound, the TGI (HL-60(TB) leukemia) was 55.6 µM, the TGI (NCI-H23 lung) was over 100 µM and the TGI (CAKI-1 renal) was 79.8 µM. It also gave a TGI (SF-295 CNS) of 74.3 µM, a TGI (COLO 205 colon) of over 100 µM and a TGI (MALME-3M melanoma) of 17.9 µM. It also gave a TGI (SW-620 colon) of over 100 µM, a TGI (HT29 colon) of over 100 µM and a TGI (NCI-H226 lung) of over 100 µM. For the same compound, the TGI (IGROV1 ovarian) was over 100 µM, the TGI (SF-539 CNS) was 89.6 µM and the TGI (SK-MEL-28 melanoma) was over 100 µM. The TGI (OVCAR-3 ovarian) was over 100 µM, the TGI (NCI-H522 lung) was 70.1 µM and the TGI (EKVX NSCLC) was 98.6 µM. It also gave a TGI (KM20L2 colon) of over 100 µM, a TGI (ACHN renal) of 89.5 µM and a TGI (HOP-62 NSCLC) of over 100 µM. It also gave a TGI (SNB-78 CNS) of over 100 µM, a TGI (CCRF-CEM leukemia) of over 100 µM and a TGI (SN12C renal) of over 100 µM. For the same compound, the TGI (OVCAR-4 ovarian) was over 100 µM, the TGI (UO-31 renal) was 35.1 µM and the TGI (OVCAR-5 ovarian) was over 100 µM. It also gave a TGI (DMS 114 small cell lung) of over 100 µM, a TGI (SF-268 CNS) of over 100 µM and a TGI (U251 CNS) of over 100 µM. It also gave a TGI (M19-MEL melanoma) of over 100 µM, a TGI (LXFL 529 NSCLC) of over 100 µM and a TGI (HOP-18 NSCLC) of 6.44 µM. For the same compound, the TGI (SR leukemia) was over 100 µM, the TGI (UACC-257 melanoma) was 66.2 µM and the TGI (A549 NSCLC) was 63.8 µM. It also gave a TGI (LOX IMVI melanoma) of over 100 µM, a TGI (HCT-116 colon) of over 100 µM and a TGI (NCI-H460 lung) of over 100 µM. The TGI (SK-MEL-2 melanoma) was over 100 µM, the TGI (K-562 leukemia) was over 100 µM and the TGI (UACC-62 melanoma) was over 100 µM. The TGI (SNB-19 CNS) was over 100 µM and the TGI (MOLT-4 leukemia) was over 100 µM.
